Patent publication US9855236B2, “Pharmaceutical compositions comprising DGLA and/or 15-HETrE and methods of use thereof” (Dignity Sciences Limited, priority 2011, dated 2018)

Experiments:
[1] = tested on: UV-induced edema and erythema; assay: Sinclair miniature swine phototoxicity model: sites exposed to UV, then treated topically for 7 days (treatment); format: in vivo; details: for average Draize score as compared to test sites treated with the control vehicle: test sites first exposed to UV radiation, then treated topically twice daily for 7 days, any of the tested dosages, vehicle ethanol, FIGS. 1-6; for treating or reversing UV induced erythema: topical application after UV exposure
Procedure: Compositions comprising DGLA and/or 15-HETrE were tested for their ability to treat and/or prevent edema and erythema (e.g., UV induced erythema). In an exemplary method, a Sinclair miniature swine model of phototoxicity testing was employed to examine the effects of such compositions on UV-induced edema and erythema. Miniature swine were chosen for these studies as they have a skin structure that closely resembles that of humans. The miniature swine used in these studies were fed standard Sinclair S-9 ration or equivalent, once a day at a maintenance amount and had ad libitum access to deep well water. Throughout the study, the swine were housed individually in cages (˜3×5 ft) constructed of stainless steel with self-spanned polyvinyl chloride (PVC)-coated expanded metal flooring. The animal housing rooms were set to maintain a room temperature of 16 to 27° C. (61 to 81° F.), with fluorescent lights providing an approximate 12-hr light/12-hr dark photoperiod. The animals were acclimated for approximately 5 days prior to the start of dosing. During acclimation, animals were subject to a physical examination by a veterinarian and any animal with questionable health was excluded from these studies. For these studies, two groups each consisting of three animals (#1-#3) were used. For each animal, ten sites (e.g., dose sites) for were established on the torso and the hair at the site was clipped with an electric clipper. These sites were then shaved and demarcated by tattooing at least four days prior to the start of initial dosing on study day 1. The dose sites may be shaved with a razor the day prior to initial dose administration and prior to the second and third application when applicable. The sites (approximately 4 cm^2 in size) were evenly split on the left and right side with 5 sites demarcated on each side. Each animal was topically administered a composition comprising a control vehicle (ethanol), DGLA or HETrE to the demarcated test sites on the animal before and/or after exposure of the test sites to UV radiation. Specifically, a 0.1 mL dose of a composition comprising 1 mg/mL, 10 mg/mL, or 100 mg/mL of DGLA and a 0.1 mL dose of a composition comprising 0.1 mg/mL, 1.0 mg/mL, or 10 mg/mL 15-HETrE was applied to separate 4 cm^2 areas of the skin (e.g., test sites) on each animal to achieve a dose per area of 0.1 mg/4 cm^2, 1.0 mg/4 cm^2, or 10.0 mg/4 cm^2 DGLA or 0.1 mg/4 cm^2, 1.0 mg/4 cm^2, or 10.0 mg/4 cm^2 15-HETrE, respectively. Such compositions were applied via a pipette twice daily with approximately seven hours between administrations over 7 days. Table 1 below outlines the dosing regimen for the 10 sites on each animal and indicates the day that the animal was administered a dose of UV radiation. […]

[2] = tested on: UV-induced edema and erythema; assay: Sinclair miniature swine phototoxicity model: sites treated topically for 7 days, then exposed to UV (prevention); format: in vivo; details: for prevention of UV-induced erythema: topical before UV exposure; for average Draize score as compared to test sites treated with the control vehicle: test sites first treated topically twice daily for 7 days, then exposed to UV radiation, vehicle ethanol, FIGS. 7-12
Procedure: Compositions comprising DGLA and/or 15-HETrE were tested for their ability to treat and/or prevent edema and erythema (e.g., UV induced erythema). In an exemplary method, a Sinclair miniature swine model of phototoxicity testing was employed to examine the effects of such compositions on UV-induced edema and erythema. Miniature swine were chosen for these studies as they have a skin structure that closely resembles that of humans. The miniature swine used in these studies were fed standard Sinclair S-9 ration or equivalent, once a day at a maintenance amount and had ad libitum access to deep well water. Throughout the study, the swine were housed individually in cages (˜3×5 ft) constructed of stainless steel with self-spanned polyvinyl chloride (PVC)-coated expanded metal flooring. The animal housing rooms were set to maintain a room temperature of 16 to 27° C. (61 to 81° F.), with fluorescent lights providing an approximate 12-hr light/12-hr dark photoperiod. The animals were acclimated for approximately 5 days prior to the start of dosing. During acclimation, animals were subject to a physical examination by a veterinarian and any animal with questionable health was excluded from these studies. For these studies, two groups each consisting of three animals (#1-#3) were used. For each animal, ten sites (e.g., dose sites) for were established on the torso and the hair at the site was clipped with an electric clipper. These sites were then shaved and demarcated by tattooing at least four days prior to the start of initial dosing on study day 1. The dose sites may be shaved with a razor the day prior to initial dose administration and prior to the second and third application when applicable. The sites (approximately 4 cm^2 in size) were evenly split on the left and right side with 5 sites demarcated on each side. Each animal was topically administered a composition comprising a control vehicle (ethanol), DGLA or HETrE to the demarcated test sites on the animal before and/or after exposure of the test sites to UV radiation. Specifically, […] comprising 0.1 mg/mL, 1.0 mg/mL, or 10 mg/mL 15-HETrE was applied to separate 4 cm^2 areas of the skin (e.g., test sites) on each animal to achieve a dose per area of 0.1 mg/4 cm^2, 1.0 mg/4 cm^2, or 10.0 mg/4 cm^2 DGLA or 0.1 mg/4 cm^2, 1.0 mg/4 cm^2, or 10.0 mg/4 cm^2 15-HETrE, respectively. Such compositions were applied via a pipette twice daily with approximately seven hours between administrations over 7 days. Table 1 below outlines the dosing regimen for the 10 sites on each animal and indicates the day that the animal was administered a dose of UV radiation. For example, for test sites 5-7, the sites were first exposed to UV radiation on day 4 and then contacted topically with DGLA or HETrE on days 4-10. Additionally, for example, for test sites 8-10, the sites were topically contacted with DGLA or HETrE on days 1-7 and then exposed to UV radiation on day 8. [table] Animals receiving UV light were anesthetized via isoflurane gas and 100% oxygen. To exposure the animals to UV, a bank of fluorescent lamps utilizing 10 UVA and 1 UVB bulb was then suspended over the animal. The correct dose level of UV light applied to the designated dose site was verified using a Solar Light® light meter. Animals were exposed to MED/hi of 4 for a time period of 21 minutes yielding a MEDi of 1.4. […]

Compound	average Draize score as compared to test sites treated with the control vehicle [1]	treating or reversing UV induced erythema [1]	skin irritation by the high dose ([2]; 10 mg/mL dose of DGLA, topical, prevention of erythema could not be determined at this dose)	prevention of UV-induced erythema ([2]; dose of 0.1 or 1.0 mg/mL DGLA)	average Draize score as compared to test sites treated with the control vehicle [2]	prevention of UV-induced erythema ([2]; dose of 0.01, 0.1, or 1.0 mg/mL HETrE)
CCCCC/C=C\C/C=C\C/C=C\CCCCCCC(=O)O [DGLA, cis-8,11,14-eicosatrienoic acid]	did not exhibit an appreciable difference	not capable of treating or reversing UV induced erythema	irritating to the skin	able to prevent UV-induced erythema	significant reduction	–
CCCCCC(O)/C=C/C=C\C/C=C\CCCCCCC(=O)O (stereo not drawn) [HETrE, 15-Hydroxy-eicosa-8(Z),11(Z),13(E)-trienoic acid]	did not exhibit an appreciable difference	not capable of treating or reversing UV induced erythema	–	–	significant reduction	able to prevent UV-induced erythema
